Reference: patent US5922742A, “Pyridinyl-2-cyclopenten-1-ones as selective cyclooxygenase-2 inhibitors” (Merck Frosst Canada, priority 1997, dated 1999)

What was measured:
[1] = tested on: carrageenan-induced paw edema in rats; assay: Rat paw edema assay (carrageenan); assay type: in vivo, Male Sprague-Dawley rats; details: po, 1 hr before carrageenan, paw volume 3 hr after
Method: Male Sprague-Dawley rats (150-200 g) are fasted overnight and are given, po, either vehicle (1% methocel or 5% Tween 80) or a test compound. One hr later, a line is drawn using a permanent marker at the level above the ankle in one hind paw to define the area of the paw to be monitored. The paw volume (V0) is measured using a plethysmometer (Ugo-Basile, Italy) based on the principle of water displacement. The animals are then injected subplantarly with 50 μt of 1% carrageenan solution in saline (FMC Corp, Maine) into the paw using an insulin syringe with a 25-gauge needle (i.e. 500 μg carrageenan per paw). Three hr later, the paw volume (V3) is measured and the increases in paw volume (V3 -V0) are calculated. The animals are sacrificed by CO2 asphyxiation and the absence or presence of stomach lesions scored. Data is compared with the vehicle-control values and percent inhibition calculated. All treatment groups are coded to eliminate observer bias.

[2] = biological target: T1, Cox-2 (Homo sapiens, UniProt P35354); assay: Human whole blood assay, COX-2 (LPS-induced PGE2 production); assay type: cell-based; details: for Selectivity Ratio: Cox-1 U937 IC50 / Cox-2 Whole Blood IC50; for IC50: human whole blood, LPS-induced PGE2, 24 hours at 37° C
T1 construct: active only after incubation of human whole blood with LPS, which induces COX-2; endogenous in cells; host or cells: fresh heparinized human whole blood from volunteers, incubated with LPS
T1 sequence (P35354 18-604): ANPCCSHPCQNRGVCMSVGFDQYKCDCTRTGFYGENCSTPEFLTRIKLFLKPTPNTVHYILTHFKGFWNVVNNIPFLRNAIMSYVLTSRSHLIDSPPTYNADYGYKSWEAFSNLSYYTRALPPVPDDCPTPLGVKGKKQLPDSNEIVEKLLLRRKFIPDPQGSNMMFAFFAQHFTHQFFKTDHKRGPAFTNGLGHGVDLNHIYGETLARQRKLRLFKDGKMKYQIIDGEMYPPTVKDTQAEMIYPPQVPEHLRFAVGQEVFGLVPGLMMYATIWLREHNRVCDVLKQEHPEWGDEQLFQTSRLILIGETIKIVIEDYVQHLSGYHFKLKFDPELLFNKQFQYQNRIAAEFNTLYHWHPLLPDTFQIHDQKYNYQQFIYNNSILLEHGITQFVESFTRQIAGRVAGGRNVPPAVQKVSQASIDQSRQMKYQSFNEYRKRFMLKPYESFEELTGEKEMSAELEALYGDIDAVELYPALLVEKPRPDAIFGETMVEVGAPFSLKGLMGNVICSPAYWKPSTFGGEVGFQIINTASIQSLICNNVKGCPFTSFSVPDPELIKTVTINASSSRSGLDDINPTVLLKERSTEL
Description: As well, platelets in whole blood contain a large amount of the COX-1 enzyme. Immediately following blood clotting, platelets are activated through a thrombin-mediated mechanism. This reaction results in the production of thromboxane B2 (TxB2) via activation of COX-1. Thus, the effect of test compounds on TxB2 levels following blood clotting can be examined and used as an index for COX-1 activity. Therefore, the degree of selectivity by the test compound can be determined by measuring the levels of PGE2 after LPS induction (COX-2) and TxB2 following blood clotting (COX-1) in the same assay.
A. COX-2 (LPS-induced PGE2 production)
Fresh blood is collected in heparinized tubes by venipuncture from both male and female volunteers. The subjects have no apparent inflammatory conditions and have not taken any NSAIDs for at least 7 days prior to blood collection. Plasma is immediately obtained from a 2 mL blood aliquot to use as blank (basal levels of PGE2). The remaining blood is incubated with LPS (100 μg/ml final concentration, Sigma Chem, #L-2630 from E. coli; diluted in 0.1% BSA (Phosphate buffered saline) for 5 minutes at room temperature. Five hundred μL aliquots of blood are incubated with either 2μL of vehicle (DMSO) or 2 μL of a test compound at final concentrations varying from […] to 30μM for 24 hours at 37° C. At the end of the incubation, the blood is centrifuged at 12,000×g for 5 minutes to obtain plasma. A 100μL aliquot of plasma is mixed with 400 μL of methanol for protein precipitation. The supernatant is obtained and is assayed for PGE2 using a radioimmunoassay kit (Amersham, RPA#530) after conversion of PGE2 to its methyl oximate derivative according to the manufacturer's procedure. […]

[3] = biological target: T2, Cox-1 (Homo sapiens, UniProt P23219); assay: Cox-1 U937 (PGE2 synthesis); assay type: cell-based
T2 construct: human U-937 cells (which specifically express COX-1); endogenous in cells; host or cells: human U-937 cells (whole cells or their microsomes)
T2 sequence (P23219 24-599): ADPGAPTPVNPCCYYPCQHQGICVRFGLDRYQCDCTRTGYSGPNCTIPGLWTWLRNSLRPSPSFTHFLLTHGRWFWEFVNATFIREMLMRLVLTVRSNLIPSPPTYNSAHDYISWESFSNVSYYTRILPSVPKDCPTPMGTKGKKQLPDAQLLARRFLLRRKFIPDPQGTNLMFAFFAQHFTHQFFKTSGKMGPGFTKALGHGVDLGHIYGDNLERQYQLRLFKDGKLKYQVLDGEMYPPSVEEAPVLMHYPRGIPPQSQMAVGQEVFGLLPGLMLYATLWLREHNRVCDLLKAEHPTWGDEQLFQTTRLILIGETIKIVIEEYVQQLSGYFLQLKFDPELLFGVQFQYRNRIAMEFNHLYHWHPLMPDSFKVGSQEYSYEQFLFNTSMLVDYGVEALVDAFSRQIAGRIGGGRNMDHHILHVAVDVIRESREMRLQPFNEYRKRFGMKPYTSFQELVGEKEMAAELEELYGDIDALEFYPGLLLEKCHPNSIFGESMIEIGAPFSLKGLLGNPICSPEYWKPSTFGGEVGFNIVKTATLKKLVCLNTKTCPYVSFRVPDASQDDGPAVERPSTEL
Method: Compounds are tested as inhibitors of cyclooxygenase activity in whole cell cyclooxygenase assays. Both of these assays measure prostaglandin E2 synthesis in response to AA, using a radioimmunoassay. Cells used for these assays are human osteosarcoma 143 cells (which specifically express COX-2) and human U-937 cells (which specifically express COX-1). […] For cyclooxygenase assays, osteosarcoma cells are cultured in 1 mL of media in 24-well multidishes (Nunclon) until confluent (1-2 ×10^5 cells/well). U-937 cells are grown in spinner flasks and resuspended to a final density of 1.5×10^6 cells/mL in 24well multidishes (Nunclon). Following washing and resuspension of osteosarcoma and U-937 cells in 1 mL of HBSS, 1 μL of a DMSO solution of test compound or DMSO vehicle is added, and samples gently mixed. All assays are performed in triplicate. […] AA (peroxide-free, Cayman Chemical) is prepared as a 10 mM stock solution in ethanol and further diluted 10-fold in HBSS. […] Control samples are incubated with ethanol vehicle instead of AA. Samples are again gently mixed and incubated for a further 10 min. at 37° C. For osteosarcoma cells, reactions are then stopped by the addition of 100 μL of 1N HCl, with mixing and by the rapid removal of the solution from cell monolayers. For U-937 cells, reactions are stopped by the addition of 100 μL of 1N HCl, with mixing. Samples are then neutralized by the addition of 100 μL of 1N NaOH and PGE2 levels measured by radioimmunoassay. Assay of COX-1 Activity from U937 cell microsomes U 937 cells are pelleted by centrifugation at 500×g for 5 min and washed once with phosphate-buffered saline and repelleted. Cells are resuspended in homogenization buffer consisting of 0.1M Tris-HCl, pH 7.4, 10 mM EDTA, 2 μg/ml leupeptin, 2 μg/ml soybean trypsin inhibitor, 2 μg/ml aprotinin and 1 mM phenyl methyl sulfonyl fluoride. The cell suspension is sonicated 4 times for 10 sec and is centrifuged at 10,000×g for 10 min at 4° C. The supernatant is centrifuged at 100,000×g for 1 hr at 4° C. The 100,000×g microsomal pellet is resuspended in 0.1M Tris-HCl, pH 7.4, 10 mM EDTA to approximately 7 mg protein/ml and stored at -80° C. […] Assays are performed in duplicate in a final volume of 250 μl. Initially, 5 μl of DMSO vehicle or drug in DMSO are added to 20 μl of 0.1M Tris-HCl buffer, pH 7.4 containing 10 mM EDTA in wells of a 96-deepwell polypropylene titre plate. 200 μl of the microsomal preparation are then added and pre-incubated for 15 min at room temperature before addition of 25 μl of […] arachidonic acid in 0.1M Tris-HCl and 10 mM EDTA, pH 7.4. Samples are incubated for 40 min at room temperature and the reaction is stopped by the addition of 25 μl of 1N HCl. Samples are neutralized with 25 μl of 1N NaOH prior to quantitation of PGE2 content by radioimmunoassay (Dupont-NEN or Amersham assay kits). Cyclooxygenase activity is defined as the difference between PGE2 levels in samples incubated in the presence of arachidonic acid and ethanol vehicle. Compounds of the present invention are inhibitors of COX-2 and are thereby useful in the treatment of COX-2 mediated diseases as enumerated above. The activities of the compounds against cyclooxygenase may be seen in the representative results shown below. In the assay, inhibition is determined by measuring the amount of prostaglandin E2 (PGE2) synthesized in the presence of AA, COX-1 or COX-2 and a putative inhibitor. […]

SMILES | Selectivity Ratio [2] | IC50 [2] | IC50 [3] | ED50 [1]
CS(=O)(=O)c1ccc(C2=C(c3ccc4cccnc4c3)C(=O)OC2)cc1 [C] | 1 | 590 nM | 600 nM | –
CS(=O)(=O)c1ccc(C2=C(c3cncc(Cl)c3)C(=O)CC2)cc1 [Example 2, 2-(5-Chloropyridin-3-yl)-3-(4-(methylsulfonyl)phenyl)-2-cyclopenten-1-one] | – | – | > 100000 nM | –

More lines, in order of falling IC50 [2], values ahead:

Selectivity Ratio [2] | IC50 [2] | IC50 [3] | SMILES | ED50 [1]
52 | 580 nM | 30000 nM | CS(=O)(=O)c1ccc(C2=C(c3cccnc3)C(=O)CC2)cc1 [Example 1, 3-(4-(Methylsulfonyl)phenyl)-2-(3-pyridinyl)-2-cyclopenten-1-one] | 1.7 mg/kg
78 | 460 nM | 36000 nM | CS(=O)(=O)c1ccc(C2=C(c3ccc(Cl)cn3)C(=O)CC2)cc1 [Example 10, 2-(5-Chloro-2-pyridinyl)-3-(4-(methylsulfonyl)phenyl)-2-cyclopenten-1-one] | 2.5 mg/kg
10 | 190 nM | 1900 nM | CS(=O)(=O)c1ccc(C2=C(c3ccccc3)C(=O)CC2)cc1 [B] | 10 mg/kg
5 | 90 nM | – | CS(=O)(=O)c1ccc(C2=C(c3ccc(F)cc3)C(=O)CC2)cc1 [A] | 3 mg/kg
